# Patent US20260034125A1, “N-PHENYL-1-(PHENYLSULFONYL)PIPERIDIN-4-AMINE DERIVATIVES AS CCR6 INHIBITORS” (priority 2023, published 2026)
# Molecular target: T1, human CCR6 (Homo sapiens, UniProt P51684)
# T1 sequence (P51684 1-374): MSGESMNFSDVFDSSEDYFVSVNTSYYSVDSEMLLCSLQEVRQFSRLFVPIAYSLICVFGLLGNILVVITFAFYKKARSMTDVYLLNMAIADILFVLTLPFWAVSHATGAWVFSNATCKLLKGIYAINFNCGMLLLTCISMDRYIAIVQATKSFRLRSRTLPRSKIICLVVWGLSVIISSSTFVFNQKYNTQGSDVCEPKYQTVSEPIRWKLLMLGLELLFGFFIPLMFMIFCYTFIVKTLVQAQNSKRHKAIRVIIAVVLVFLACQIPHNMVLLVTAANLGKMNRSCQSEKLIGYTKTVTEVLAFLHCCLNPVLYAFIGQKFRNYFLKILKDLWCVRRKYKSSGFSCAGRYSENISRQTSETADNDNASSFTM
# Experiment: Human CCR6-Cre reporter assay
# Assay type: cell-based
# Parameters: The second construct contained the open reading frame of human CCR6 in the pUNO1 backbone; host or cells: 293 FT cells
# Settings: relative -LogIC50; transfected 293 FT cells, 6 μM Forskolin, 6 nM CCL20, luciferase readout, 5h
# Method: 293 FT cells were transfected with 2 constructs using TransIT-293 (Mirus). The first construct (pGL4.29, Promega) expressed the luciferase reporter gene luc2P in response to the binding of cAMP-induced CREB to the CRE element in its promoter. The second construct contained the open reading frame of human CCR6 in the pUNO1 backbone under the control of an enhanced CMV promoter (In VivoGen). 48h after transfection, cells were harvested and diluted to 750,000 cells/ml in culture medium (DMEM, 10% FBS, 1× pen/strep (Gibco 15140)). Compounds were 2.5-fold serially diluted in DMSO. Further dilutions were made in assay medium (DMEM, 10% FBS, 1× pen/strep, 6 μM Forskolin, 6 nM CCL20). 4 μl of the compound solution was added to a white MW384 plate, followed by 20 μl of the cell suspension. Final DMSO concentration in the assay was 0.1%. The MW384 plate was placed in an incubator at 37° C., 5% CO2 for 5h. Luciferase activity was determined by addition of 24 μl of a 2.5× diluted BriteLite luciferase solution (Perkin Elmer), followed by luminescence measurement using a VICTOR Plate reader (Perkin Elmer). […] The relative-LogIC50 was determined with GraphPad Prism 9 using a four-parameter dose-response model.
row,Compound,IC50
1,"N#Cc1ccc(-c2ccc(S(=O)(=O)N3CCC(Nc4ccc(C5(C#N)CC5)cc4)CC3)cc2)cc1 [Example 1, 4′-[(4-{[4-(1-cyanocyclopropyl)phenyl]Amino}piperidin-1-yl)sulfonyl]-[1,1′-biphenyl]-4-carbonitrile]",501 nM
2,"Cc1n[nH]c2ccc(-c3ccc(S(=O)(=O)N4CCC(Nc5ccc(C6(C(F)(F)F)CC6)cc5)CC4)cc3)cc12 [Example 2, 1-[4-(3-methyl-1H-indazol-5-yl)benzenesulfonyl]-N-{4-[1-(trifluoromethyl)cyclopropyl]phenyl}piperidin-4-amine]",79.4 nM
3,"N#Cc1c[nH]c2ccc(-c3ccc(S(=O)(=O)N4CCC(Nc5ccc(C6(C(F)(F)F)CC6)cc5)CC4)cc3)cc12 [Example 8, 5-(4-{[4-({4-[1-(trifluoromethyl)cyclopropyl]phenyl}Amino)piperidin-1-yl]sulfonyl}phenyl)-1H-indole-3-carbonitrile]",39.8 nM
4,"O=S(=O)(c1ccc(-c2ccc3nccn3c2)cc1)N1CCC(Nc2ccc(C3(C(F)(F)F)CC3)cc2)CC1 [Example 9, 1-(4-{imidazo[1,2-a]pyridin-6-yl}benzenesulfonyl)-N-{4-[1-(trifluoromethyl)cyclopropyl]phenyl}piperidin-4-amine]",100 nM
5,"CC(C)c1cnc2ccc(-c3ccc(S(=O)(=O)N4CCC(Nc5ccc(C6(C(F)(F)F)CC6)cc5)CC4)cc3)cn12 [Example 10, 1-{4-[3-(propan-2-yl)imidazo[1,2-a]pyridin-6-yl]benzenesulfonyl}-N-{4-[1-(trifluoromethyl)cyclopropyl]phenyl}piperidin-4-amine]",100 nM
6,"Cc1n[nH]c2ccc(-c3ccc(S(=O)(=O)N4CCC(Nc5ccc(C6CC6)cc5)CC4)cc3)cc12 [Example 11, N-(4-cyclopropylphenyl)-1-[4-(3-methyl-1H-indazol-5-yl)benzenesulfonyl]piperidin-4-amine]",501 nM
7,"N=S(=O)(c1ccc(-c2ccc3nccn3c2)cc1)[C@H]1CC[C@H](Nc2ccc(C3(C(F)(F)F)CC3)cc2)CC1 (stereo partly drawn) [Example 13, (4-{imidazo[1,2-a]pyridin-6-yl}phenyl) [trans-4-({4-[1-(trifluoromethyl)cyclopropyl]phenyl}Amino)cyclohexyl](imino)-26-sulfanone]",251 nM
8,"O=S(=O)(c1ccc(-c2ccc3nccn3c2)cc1)[C@H]1CC[C@H](Nc2ccc(C3CC3(F)F)cc2)CC1 (stereo partly drawn) [Example 14, 4-(2,2-difluorocyclopropyl)-N-[trans-4-(4-{imidazo[1,2-a]pyridin-6-yl}benzenesulfonyl)cyclohexyl]aniline]",251 nM
9,"N#CC1(c2ccc(N[C@H]3CC[C@H](S(=O)(=O)c4ccc(-c5ccc6nccn6c5)cc4)CC3)cc2)CC1 [Example 15, 1-(4-{[trans-4-(4-{imidazo[1,2-a]pyridin-6-yl}benzenesulfonyl)cyclohexyl]Amino}phenyl)cyclopropane-1-carbonitrile]",158 nM

# Results, then the molecule that gave them:
row,IC50,Compound
1,398 nM,"O=S(=O)(c1ccc(-c2ccc3nccn3c2)cc1)[C@H]1CC[C@H](Nc2ccc(C3COC3)cc2)CC1 [Example 18, 4-(oxetan-3-yl)-N-[trans-4-(4-{imidazo[1,2-a]pyridin-6-yl}benzenesulfonyl)cyclohexyl]aniline]"
2,1260 nM,"COC1CC2(CCN(c3ccc(S(=O)(=O)N4CCC(Nc5ccc(C6(C#N)CC6)cn5)CC4)cc3)CC2)C1 [Example 23, 1-(6-{[1-(4-{2-methoxy-7-azaspiro[3.5]nonan-7-yl}benzenesulfonyl)piperidin-4-yl]amino}pyridin-3-yl)cyclopropane-1-carbonitrile]"
3,5010 nM,"N#CC1(c2ccc(NC3CCN(S(=O)(=O)c4ccc(N5CCC(CC(N)=O)CC5)cc4)CC3)nc2)CC1 [Example 24, 2-(1-{4-[(4-{[5-(1-cyanocyclopropyl)pyridin-2-yl]amino}piperidin-1-yl)sulfonyl]phenyl}piperidin-4-yl) acetamide]"
4,12600 nM,"N#CC1(c2ccc(NC3CCN(S(=O)(=O)c4ccc(N5CCC(CNC(N)=O)CC5)cc4)CC3)nc2)CC1 [Example 25, [(1-{4-[(4-{[5-(1-cyanocyclopropyl)pyridin-2-yl]amino}piperidin-1-yl)sulfonyl]phenyl}piperidin-4-yl)methyl]urea]"
5,2510 nM,"N#CC1(c2ccc(NC3CCN(S(=O)(=O)c4ccc(N5CCC6(CC5)CC(=O)NC(=O)C6)cc4)CC3)nc2)CC1 [Example 26, 1-(6-{[1-(4-{8,10-dioxo-3,9-diazaspiro[5.5]undecan-3-yl}benzenesulfonyl)piperidin-4-yl]amino}pyridin-3-yl)cyclopropane-1-carbonitrile]"
6,7940 nM,"N#CC1(c2ccc(NC3CCN(S(=O)(=O)c4ccc(N5CCC6(CC5)COC(=O)N6)cc4)CC3)nc2)CC1 [Example 27, 1-(6-{[1-(4-{2-oxo-3-oxa-1,8-diazaspiro[4.5]decan-8-yl}benzenesulfonyl)piperidin-4-yl]amino}pyridin-3-yl)cyclopropane-1-carbonitrile]"
7,39800 nM,"N#CC1(c2ccc(NC3CCN(S(=O)(=O)c4ccc(N5CCC6(CCNC6=O)CC5)cc4)CC3)nc2)CC1 [Example 28, 1-(6-{[1-(4-{1-oxo-2,8-diazaspiro[4.5]decan-8-yl}benzenesulfonyl)piperidin-4-yl]amino}pyridin-3-yl)cyclopropane-1-carbonitrile]"
8,10000 nM,"N#CC1(c2ccc(NC3CCN(S(=O)(=O)c4ccc(N5CCC6(CC5)COC6)cc4)CC3)nc2)CC1 [Example 29, 1-(6-{[1-(4-{2-oxa-7-azaspiro[3.5]nonan-7-yl}benzenesulfonyl)piperidin-4-yl]amino}pyridin-3-yl)cyclopropane-1-carbonitrile]"
9,794 nM,"N#CC1(c2ccc(NC3CCN(S(=O)(=O)c4ccc(-c5ccc6nccn6c5)cc4)CC3)nc2)CC1 [Example 33, 1-(6-{[1-(4-{imidazo[1,2-a]pyridin-6-yl}benzenesulfonyl)piperidin-4-yl]amino}pyridin-3-yl)cyclopropane-1-carbonitrile]"
10,200 nM,"CC(C)c1cnc2ccc(-c3ccc(S(=O)(=O)N4CCC(Nc5ccc(C6(C#N)CC6)cn5)CC4)cc3)cn12 [Example 34, 1-{6-[(1-{4-[3-(propan-2-yl)imidazo[1,2-a]pyridin-6-yl]benzenesulfonyl}piperidin-4-yl)amino]pyridin-3-yl}cyclopropane-1-carbonitrile]"
11,63.1 nM,"CC(C)c1cnc2ccc(-c3ccc(S(=O)(=O)N4CCC(Nc5ccc(C6(C(F)(F)F)CC6)cn5)CC4)cc3)cn12 [Example 38, N-(1-{4-[3-(propan-2-yl)imidazo[1,2-a]pyridin-6-yl]benzenesulfonyl}piperidin-4-yl)-5-[1-(trifluoromethyl)cyclopropyl]pyridin-2-amine]"
12,63.1 nM,"CC(C)c1nnc2cnc(-c3ccc(S(=O)(=O)N4CCC(Nc5ccc(C6(C(F)(F)F)CC6)cn5)CC4)cc3)cn12 [Example 39, N-(1-{4-[3-(propan-2-yl)-[1,2,4]triazolo[4,3-a]pyrazin-6-yl]benzenesulfonyl}piperidin-4-yl)-5-[1-(trifluoromethyl)cyclopropyl]pyridin-2-amine]"
